#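 Five compound concentrations were applied to cells in 96-well plates for 48 hours; endpoints were derived by simple linear interpolation of the resulting dose-response curve. At the GI50, growth is halved. At the TGI there is no net growth.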
# Experiments:
# Experiment in all cases: NCI anticancer screen, dose series, 48 h
# [1] = system: PC-3 prostate
# [2] = system: CAKI-1 renal
# [3] = system: EKVX NSCLC
# [4] = system: ACHN renal
# [5] = system: NCI-H226 lung
# [6] = system: MALME-3M melanoma
# [7] = system: SNB-19 CNS
# [8] = system: UACC-257 melanoma
# [9] = system: NCI-H23 lung
# [10] = system: OVCAR-5 ovarian
# [11] = system: IGROV1 ovarian
# [12] = system: U251 CNS
# [13] = system: SW-620 colon
# [14] = system: SNB-75 CNS
# [15] = system: DU-145 prostate
# [16] = system: SF-268 CNS
# [17] = system: MOLT-4 leukemia
# [18] = system: 786-0 renal
# [19] = system: HOP-62 NSCLC
# [20] = system: SF-539 CNS
# [21] = system: LOX IMVI melanoma
# [22] = system: HOP-92 NSCLC
# [23] = system: K-562 leukemia
# [24] = system: TK-10 renal
# [25] = system: UACC-62 melanoma
# [26] = system: SN12C renal
# [27] = system: HS 578T breast
# [28] = system: HL-60(TB) leukemia
# [29] = system: SK-MEL-2 melanoma
# [30] = system: MDA-MB-435
# [31] = system: SK-MEL-28 melanoma
# [32] = system: SF-295 CNS
# [33] = system: NCI/ADR-RES ovarian
# [34] = system: MDA-MB-231 breast
# [35] = system: HCC-2998 colon
# [36] = system: SR leukemia
# [37] = system: A498 renal
# [38] = system: UO-31 renal
# [39] = system: SK-OV-3 ovarian
# [40] = system: SK-MEL-5 melanoma
# [41] = system: RPMI-8226 leukemia
# [42] = system: RXF 393 renal
# [43] = system: OVCAR-3 ovarian
# [44] = system: CCRF-CEM leukemia
# [45] = system: HCT-15 colon
# [46] = system: NCI-H460 lung
# [47] = system: A549 NSCLC
# [48] = system: OVCAR-4 ovarian
# [49] = system: HCT-116 colon
# [50] = system: BT-549 breast
# [51] = system: KM12 colon
# [52] = system: NCI-H522 lung
# [53] = system: HT29 colon
# [54] = system: T-47D breast
# [55] = system: MCF7 breast
# [56] = system: COLO 205 colon
# [57] = system: M14 melanoma
# [58] = system: OVCAR-8 ovarian
smiles,measurement,setting,value
CCOC(=O)c1c(NC(=O)COc2cccc3cccnc23)sc(C(=O)N(C)C)c1C,GI50,[1],17.5 µM
same,TGI,[1],63 µM
same,GI50,[2],20.7 µM
same,TGI,[2],77.6 µM
same,GI50,[3],23 µM
same,TGI,[3],61 µM
same,GI50,[4],24.1 µM
same,TGI,[4],75.5 µM
same,GI50,[5],17.9 µM
same,TGI,[5],50.1 µM
same,GI50,[6],20.1 µM
same,TGI,[6],46.6 µM
same,GI50,[7],33.9 µM
same,TGI,[7],> 100 µM
same,GI50,[8],18.6 µM
same,TGI,[8],48 µM
same,GI50,[9],14.7 µM
same,TGI,[9],36.5 µM
same,GI50,[10],17.4 µM
same,TGI,[10],37.3 µM
same,GI50,[11],16.7 µM
same,TGI,[11],49.2 µM
same,GI50,[12],25.2 µM
same,TGI,[12],> 100 µM
same,GI50,[13],25.8 µM
same,TGI,[13],72.4 µM
same,GI50,[14],19.1 µM
same,TGI,[14],63.1 µM
same,GI50,[15],18.5 µM
same,TGI,[15],39.2 µM
same,GI50,[16],22.4 µM
same,TGI,[16],82 µM
same,GI50,[17],16.4 µM
same,TGI,[17],44.3 µM
same,GI50,[18],20.7 µM
same,TGI,[18],79.7 µM
same,GI50,[19],19.6 µM
same,TGI,[19],58 µM
same,GI50,[20],21.9 µM
same,TGI,[20],48 µM
same,GI50,[21],22 µM
same,TGI,[21],55.1 µM
same,GI50,[22],14.2 µM
same,TGI,[22],55.1 µM
same,GI50,[23],19.7 µM
same,TGI,[23],48.9 µM
same,GI50,[24],41 µM
same,TGI,[24],> 100 µM
same,GI50,[25],11.8 µM
same,TGI,[25],27.9 µM
same,GI50,[26],33.5 µM
same,TGI,[26],> 100 µM
same,GI50,[27],15.5 µM
same,TGI,[27],44.6 µM
same,GI50,[28],18.1 µM
same,TGI,[28],39.9 µM
same,GI50,[29],18.5 µM
same,TGI,[29],45.5 µM
same,GI50,[30],16.1 µM
same,TGI,[30],31.5 µM
same,GI50,[31],16.9 µM
same,TGI,[31],33.4 µM
same,GI50,[32],13.5 µM
same,TGI,[32],30.9 µM
same,GI50,[33],6 µM
same,TGI,[33],34.3 µM
same,GI50,[34],23.7 µM
same,TGI,[34],> 100 µM
same,GI50,[35],17.2 µM
same,TGI,[35],35.2 µM
same,GI50,[36],31.6 µM
same,TGI,[36],83.5 µM
same,GI50,[37],26.6 µM
same,TGI,[37],66.7 µM
same,GI50,[38],21.4 µM
same,TGI,[38],55.6 µM
same,GI50,[39],36.2 µM
same,TGI,[39],> 100 µM
same,GI50,[40],8.8 µM
same,TGI,[40],21.1 µM
same,GI50,[41],7.93 µM
same,TGI,[41],36.8 µM
same,GI50,[42],13 µM
same,TGI,[42],34.2 µM
same,GI50,[43],20.8 µM
same,TGI,[43],69.8 µM
same,GI50,[44],14.1 µM
same,TGI,[44],82.3 µM
same,GI50,[45],18.5 µM
same,TGI,[45],48.5 µM
same,GI50,[46],13.6 µM
same,TGI,[46],33.3 µM
same,GI50,[47],18.5 µM
same,TGI,[47],46.2 µM
same,GI50,[48],22.1 µM
same,TGI,[48],65.8 µM
same,GI50,[49],14.6 µM
same,TGI,[49],45.6 µM
same,GI50,[50],14.1 µM
same,TGI,[50],32.4 µM
same,GI50,[51],15.7 µM
same,TGI,[51],35.3 µM
same,GI50,[52],13.8 µM
same,TGI,[52],30.3 µM
same,GI50,[53],25.4 µM
same,TGI,[53],61.6 µM
same,GI50,[54],5.24 µM
same,TGI,[54],27.8 µM
same,GI50,[55],19 µM
same,TGI,[55],42.5 µM
same,GI50,[56],17.4 µM
same,TGI,[56],55.5 µM
Cc1c([C@H](C(Cl)Cl)[C@H](O)[C@H]2C[C@H](C)C(=O)O2)ccc2c1C(=O)[C@H]1[C@H]2C[C@@H](Br)[C@@]23O[C@@H](CO[C@H]2O)CC13C (stereo partly drawn),GI50,[1],0.33 µM
same,TGI,[1],> 50 µM
same,GI50,[2],0.798 µM
same,TGI,[2],> 29.5 µM
same,GI50,[3],0.695 µM
same,TGI,[3],> 50 µM
same,GI50,[4],2.26 µM
same,TGI,[4],> 50 µM
same,GI50,[5],> 12.7 µM
same,TGI,[5],> 50 µM
same,GI50,[6],0.275 µM
same,TGI,[6],> 50 µM
same,GI50,[7],0.38 µM
same,TGI,[7],> 50 µM
same,GI50,[9],0.295 µM
same,TGI,[9],> 15.3 µM
same,GI50,[10],0.314 µM
same,TGI,[10],> 50 µM
same,GI50,[11],0.845 µM
same,TGI,[11],> 29.6 µM
same,GI50,[12],0.262 µM
same,TGI,[12],> 50 µM
same,GI50,[13],0.309 µM
same,TGI,[13],> 50 µM
same,GI50,[14],0.454 µM
same,TGI,[14],> 50 µM
same,GI50,[15],0.157 µM
same,TGI,[15],2.05 µM
same,GI50,[16],0.586 µM
same,TGI,[16],> 50 µM
same,GI50,[17],1.12 µM
same,TGI,[17],> 50 µM
same,GI50,[18],0.481 µM
same,TGI,[18],21.9 µM
same,GI50,[19],0.571 µM
same,TGI,[19],> 50 µM
same,GI50,[20],0.304 µM
same,TGI,[20],2.79 µM
same,GI50,[21],0.602 µM
same,TGI,[21],> 50 µM
same,GI50,[22],0.636 µM
same,TGI,[22],> 45.3 µM
same,GI50,[23],0.217 µM
same,TGI,[23],> 50 µM
same,GI50,[24],1.68 µM
same,TGI,[24],> 50 µM
same,GI50,[25],0.324 µM
same,TGI,[25],> 50 µM
same,GI50,[26],0.881 µM
same,TGI,[26],> 50 µM
same,GI50,[27],0.708 µM
same,TGI,[27],> 39.5 µM
same,GI50,[57],0.207 µM
same,TGI,[57],1.18 µM
same,GI50,[28],0.112 µM
same,TGI,[28],> 50 µM
same,GI50,[29],0.403 µM
same,TGI,[29],> 22.2 µM
same,GI50,[30],0.136 µM
same,TGI,[30],0.425 µM
same,TGI,[31],> 50 µM
same,GI50,[32],0.22 µM
same,TGI,[32],2.53 µM
same,GI50,[33],2.17 µM
same,TGI,[33],11 µM
same,GI50,[58],0.449 µM
same,TGI,[58],> 50 µM
same,GI50,[34],0.561 µM
same,TGI,[34],> 15.2 µM
same,GI50,[35],0.215 µM
same,TGI,[35],1.12 µM
same,GI50,[36],0.153 µM
same,TGI,[36],> 50 µM
same,GI50,[37],0.304 µM
same,TGI,[37],> 11.1 µM
same,GI50,[38],8.89 µM
same,TGI,[38],> 50 µM
same,GI50,[39],0.292 µM
same,TGI,[39],4.07 µM
same,GI50,[40],0.186 µM
same,TGI,[40],3.97 µM
same,GI50,[41],0.24 µM
same,TGI,[41],> 50 µM
same,GI50,[42],0.467 µM
same,GI50,[43],0.181 µM
same,GI50,[44],0.33 µM
same,TGI,[44],> 50 µM
same,GI50,[45],0.373 µM
same,TGI,[45],> 50 µM
same,GI50,[46],0.187 µM
same,TGI,[46],> 50 µM
same,GI50,[47],0.435 µM
same,TGI,[47],> 50 µM
same,GI50,[48],1.37 µM
same,TGI,[48],> 50 µM
same,GI50,[49],0.206 µM
same,TGI,[49],5.07 µM
same,GI50,[50],1.01 µM
same,TGI,[50],> 36.3 µM
same,GI50,[51],0.26 µM
same,TGI,[51],> 16.6 µM
same,GI50,[52],0.183 µM
same,TGI,[52],1.69 µM
same,GI50,[53],0.179 µM
same,TGI,[53],> 50 µM
same,GI50,[54],0.258 µM
same,TGI,[54],> 50 µM
same,GI50,[55],0.172 µM
same,TGI,[55],> 50 µM
same,GI50,[56],0.213 µM
same,TGI,[56],1.09 µM
